Experimental data taken from paper PMC12490239, “Combining BET inhibition with SMAC mimetics restricts tumor growth and triggers immune surveillance in preclinical cancer models” (Cell Reports Medicine, 2025).

Legend:
Assay in all cases: cells
Parameters in all cases: CellTiter-Glo 2.0 luminescence proliferation/viability assay, single agents, human tumour cell line panel
C99 = details: 96 h; single agent; read-out: IC50 SMACm
Procedure, shortened: (§1)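 Human tumour cell lines were seeded into assay plates and held at 37°C with 5% CO2 for twenty-four hours, then exposed in triplicate to rising concentrations of the SMAC mimetic, from 4.5 nM to 10 μM, with DMSO as control. After 96 h, viability was read as CellTiter-Glo2.0 luminescence to derive single-agent IC50 values.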

HT55 = details: Homo sapiens, HT55, 96 h; single agent; read-out: IC50 SMACm
Procedure, shortened: as §1

NCI-H441 = details: Homo sapiens, NCI-H441, 96 h; single agent; read-out: IC50 SMACm
Procedure, shortened: as §1

NCI-H2228 = details: Homo sapiens, NCI-H2228, 96 h; single agent; read-out: IC50 SMACm
Procedure, shortened: as §1

- IC50 (NCI-H441): 6.13 µM
- IC50 (NCI-H2228): 4.44 µM
SMILES: CN[C@@H](C)C(=O)Nc1ccc(-c2c(-c3cccnc3OC)nc3cc(C)ccn23)c(C#Cc2ccc3c(C)nccc3c2)n1 [SMACm, BI 891065]
- IC50 (C99): 3.8 µM
- IC50 (HT55): 5 µM
